Peptide text beside a SMILES is read from it.
What was measured:
E. tarda [1] = test: Host resistance assay, Experiment Two: pre-injection 2 h before bacteria; assay type: in vivo, Medaka; conditions: injected 2 h prior to E. tarda
Method: (§1) FIG. 11A is a plot showing the effect of Peptide A on viability of cultured mammalian cells, incubated for 48 h in the presence of Peptide A at different concentrations (μg/ml), as determined by MTT assay. Cell viability represented as peptide treated cell numbers over medium-only control. Statistically significant difference as compared to controls (*: p<0.05, **: p<0.01, n=4). FIG. 11B is a plot showing the ability of Peptide A to protect medaka from lethal challenge of E. tarda ([…]). Medaka was injected with 1 μl of Peptide A (0.68 mM), with 1 μl of E. tarda (10^7 CFU/ml) and Peptide A (0.68 mM) mixture, or with E. tarda alone (1 μl of E. tarda:10^7 CFU/ml). […] 20 fish per group. Log-rank (Mantel-Cox) test was applied for the comparison of survival curves (**: p<0.01).
The efficacy of the synthesized AMP to protect medaka against infection was characterized using host resistance assays with intraperitoneal (i.p.) injection of bacteria using a micro-injection machine (PV820 Pneumatic PicoPump). In Experiment One, 80 medaka fish were used and divided into four groups (20 fish in each group, male, 6 months): (1) Group 1 was injected with only 1 μl of PBS in each fish; (2) Group 2 was injected with only 1 μl of novel AMP (0.68 mM) in each fish; (3) Group 3 was injected with 1 μl of bacteria (at a titer of 5×10^7 CFU/ml); and (4) bacteria and novel AMP were mixed for 5 min and then 1 μl of the mixture was injected into Group 4 (Bacteria: 5×10^7 CFU/ml, AMP: 0.68 mM). In Experiment Two, 60 fish were used and divided into three groups: each fish was injected with 1 μl of PBS, ampicillin (5.7 mM) or Peptide A (1.36 mM). The fish were anesthetized in MS222 for 30 s before microinjection. After two hours, 1 μl of bacteria (5×10^7 CFU/ml) was injected into the fish. All of the fishes were kept under a static condition of 26° C.±1° C., with 14:10 hrs of a light-dark cycle. The water was replaced every two days. The fish were fed three times each day. The number of dead fish was counted on a daily basis until two weeks after the injections.

E. tarda [2] = test: Host resistance assay, Experiment One: co-injection of bacteria and peptide; assay type: in vivo, Medaka; conditions: co-injected with Peptide A (0.68 mM, 1 μl) and E. tarda
Method: as §1
The efficacy of the synthesized AMP to protect medaka against infection was characterized using host resistance assays with intraperitoneal (i.p.) injection of bacteria using a micro-injection machine (PV820 Pneumatic PicoPump). […] The number of dead fish was counted on a daily basis until two weeks after the injections.

[3] = system: Gram positive (S. aureus) and negative (E. coli) bacteria; test: Toxicity screen of synthesized shortlisted SCPs against bacteria; assay type: cell-based; conditions: synthesized peptides
Excerpt: Of the remaining SCPs, 1519 (24%) satisfy the CAMP prediction algorithm for AMPs as potential AMPs (FIG. 3). In order to increase the accuracy of prediction, the inventors further limited the shortlisted AMPs to amphipathic and cationic peptides, since they account for the majority of currently known AMPs. There are 430 peptides from the SCP database that satisfied these criteria. To assess the accuracy of the AMP prediction, the inventors synthesized 53 of the shortlisted SCPs and tested their toxicity against both Gram positive (S. aureus) and negative (E. coli) bacteria.

E. tarda [4] = test: Quantitative proteomic analysis of AMP-treated bacteria; assay type: cell-based; conditions: 6.8 μM, 1 hr
Method: Bacteria with or without AMP treatment for 1 hr at 6.8 μM were washed and lysed in 8 M of urea for 2 hrs. The lysate was then reduced in 10 mM of dithiothreitol (DTT) in 50 mM of ammonium bicarbonate (30 min at room temperature) and alkylated in 50 mM of […] (IAA) in 50 mM of ammonium bio-carbonate (20 min at room temperature). The samples were diluted 8 times with ammonium bicarbonate (50 mM, pH 8.0) so that the final concentration of urea was 1 M, followed by 2 μg of trypsin (Roche, Mannheim, Germany) for digestion. The mixtures were then incubated overnight at 37° C. and dried in a vacuum centrifuge (Eppendorf Concentrator plus). The peptides were dissolved in 20 μl of 0.1% trifluoroacetic acid (TFA), followed by ZipTip (Millipore, Billerica, Mass., USA) purification that was carried out in accordance with the manufacturer's instructions.
Mass spectrometry (MS) data were collected on an Orbitrap Fusion mass spectrometer coupled on-line with a nanoUPLC EASY-LC-1000 liquid chromatography system (ThermoFisher Scientific™, San Jose, Calif.). The peptides were eluted by using a microcapillary column with 50 cm×75 μm ID, PepMap C18, 2 μm particles (ThermoFisher Scientific™) with 2 to 80% acetonitrile in 0.1% formic acid at a flow rate of ˜350 nL/min for 120 min of gradient. They were ionized through electrospray ionization (positive mode 2.1 kV), and survey scans of peptide precursors from 350 to 1550 m/z were performed at a resolution of 120 K at 200 m/z. Tandem MS was performed by isolation at 1.2 Th with the quadrupole component, fragmentation with normalized collision energy of 35%, and rapid scan MS analysis in the ion trap. The MS2 ion count target was set to 10E4 and the maximum injection time was 250 ms. Only precursors with a charge state of 2-7 were fragmented for the MS2 analysis. The dynamic exclusion duration was set to 60 s with a 10 ppm of low and high mass tolerance around the selected precursor and its isotopes. The instrument was run in data dependent mode by using Orbitrap and an ion trap with […] cycles.
The raw data were analyzed by using Proteome Discoverer (Version 1.4.0.288. Thermo Fisher Scientific). The MS/MS spectra were searched with the Mascot search engine against the NCBI bacteria database 2014 (with 29,574 sequence entries). The peptides were generated from a Lys-C and tryptic digestion and the precursor mass tolerance was set as 25 ppm, and 0.6 Da for fragment mass tolerances. The oxidation of methionine and deamidation of N, Q were set as the dynamic modification, and the carbamidomethylation of cysteine-C as the static modification. The peptide spectral matches (PSMs) were validated by using a percolator based on q-values at a 1% false discovery rate (FDR). For protein identification, a high-confidence database search with a peptide target FDR (strict) of 0.1%, and target FDR (relaxed) 0.5% and ranked 1 peptides were used for peptide filtering. Identified peptides were grouped into individual protein clusters by scaffolding.
Peptide quantitation was carried out by using Progenesis LC-MS (version 4.1, Nonlinear) and as described in Babaei, F. et al. J. Proteome Res. Eversion, (2013). […] Following a statistical analysis, processing was carried out by using transformed “log-like” […] calculations of all the detected features. The total cumulative abundance was calculated by summing the abundance of all peptides that belonged to a respective protein. […]

CC[C@H](C)[C@H](N)C(=O)N[C@@H](CCCNC(=N)N)C(=O)N[C@H](C(=O)N[C@H](C(=O)N[C@@H](CC(C)C)C(=O)N[C@@H](CCCNC(=N)N)C(=O)N[C@@H](C)C(=O)N[C@@H](CCC(N)=O)C(=O)NCC(=O)N[C@@H](C)C(=O)N[C@@H](CC(C)C)C(=O)N[C@@H](CCCCN)C(=O)N[C@H](C(=O)O)[C@@H](C)CC)[C@@H](C)CC)[C@@H](C)CC [Peptide A, IRIILRAQGALKI] (H-IRIILRAQGALKI-OH; N-terminus and C-terminus assumed)
initial survival rate (E. tarda [1]; one day post injection, Peptide A 1.37 mM, Ampicillin 5.7 mM, 1 μl): 85% | effect on E. tarda infection / surviving fish (E. tarda [1]; two weeks after infection): still higher than the controls | medaka survival rate (E. tarda [2]): 80% | toxicity / antimicrobial activity against bacteria [3]: demonstrated toxicity against both Gram positive and negative bacteria | expression of CPX two component pathway proteins DsbC, PpiA and FkpA (E. tarda [4]): down-regulated | expression of DegQ, RpsO and YfiO (downstream proteins of the RpoE pathway) (E. tarda [4]): up-regulation | expression of Peptidyl-prolyl isomerase family members PpiA, PpiB, FkpA and SurA (E. tarda [4]): highly suppressed | expression of proteins involved in outer membrane assembly, peptidoglycan synthesis, and metal ion binding (E. tarda [4]): induced | proteins differentially expressed (at least one-fold difference) of 251 high confidence proteins (E. tarda [4]): 74

From patent US11065296B2, “Antimicrobial peptide, its analog and use” (City University of Hong Kong, priority 2018, dated 2021)
